In ChEMBL document CHEMBL5291721, “A preclinical secondary pharmacology resource illuminates target-adverse drug reaction associations of marketed drugs” (Nat Commun, 2023):

Columns and labels:
[1] = target: 3',5'-cyclic-AMP phosphodiesterase 4A (Homo sapiens, UniProt P27815); assay type: functional
[2] = target: Sodium-dependent noradrenaline transporter (Homo sapiens, UniProt P23975)
Thromboxane A2 receptor = target: T1, Thromboxane A2 receptor (Homo sapiens, UniProt P21731); assay type: functional, cell-based
T1 sequence (P21731 whole entry): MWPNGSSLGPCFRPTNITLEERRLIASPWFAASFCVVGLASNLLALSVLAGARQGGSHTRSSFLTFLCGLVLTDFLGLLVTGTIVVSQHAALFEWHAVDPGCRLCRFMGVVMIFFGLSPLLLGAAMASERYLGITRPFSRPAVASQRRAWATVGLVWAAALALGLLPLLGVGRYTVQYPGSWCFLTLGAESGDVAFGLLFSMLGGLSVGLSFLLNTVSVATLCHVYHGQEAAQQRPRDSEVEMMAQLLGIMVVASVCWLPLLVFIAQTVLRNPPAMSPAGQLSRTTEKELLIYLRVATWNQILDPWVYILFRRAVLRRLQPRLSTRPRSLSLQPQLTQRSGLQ

Histamine H1 receptor = Histamine H1 receptor (Homo sapiens, UniProt P35367)
[3] = target: T2, Alpha-1A adrenergic receptor (Homo sapiens, UniProt P35348); assay type: functional, cell-based
T2 sequence (P35348 whole entry): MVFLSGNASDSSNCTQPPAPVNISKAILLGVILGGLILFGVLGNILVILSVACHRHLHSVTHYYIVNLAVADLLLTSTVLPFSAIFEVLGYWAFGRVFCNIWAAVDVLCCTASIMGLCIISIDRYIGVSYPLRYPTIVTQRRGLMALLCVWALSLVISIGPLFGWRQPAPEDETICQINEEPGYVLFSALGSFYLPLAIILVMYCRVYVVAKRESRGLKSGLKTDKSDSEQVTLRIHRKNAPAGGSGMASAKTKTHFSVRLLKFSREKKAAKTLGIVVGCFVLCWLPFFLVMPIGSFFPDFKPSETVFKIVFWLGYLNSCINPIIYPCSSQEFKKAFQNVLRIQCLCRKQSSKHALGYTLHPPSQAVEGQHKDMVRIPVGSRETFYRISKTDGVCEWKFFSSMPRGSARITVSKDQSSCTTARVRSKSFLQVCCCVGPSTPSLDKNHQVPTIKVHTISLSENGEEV

[4] = target: T3, Gastrin/cholecystokinin type B receptor (Homo sapiens, UniProt P32239)
T3 sequence (P32239 whole entry): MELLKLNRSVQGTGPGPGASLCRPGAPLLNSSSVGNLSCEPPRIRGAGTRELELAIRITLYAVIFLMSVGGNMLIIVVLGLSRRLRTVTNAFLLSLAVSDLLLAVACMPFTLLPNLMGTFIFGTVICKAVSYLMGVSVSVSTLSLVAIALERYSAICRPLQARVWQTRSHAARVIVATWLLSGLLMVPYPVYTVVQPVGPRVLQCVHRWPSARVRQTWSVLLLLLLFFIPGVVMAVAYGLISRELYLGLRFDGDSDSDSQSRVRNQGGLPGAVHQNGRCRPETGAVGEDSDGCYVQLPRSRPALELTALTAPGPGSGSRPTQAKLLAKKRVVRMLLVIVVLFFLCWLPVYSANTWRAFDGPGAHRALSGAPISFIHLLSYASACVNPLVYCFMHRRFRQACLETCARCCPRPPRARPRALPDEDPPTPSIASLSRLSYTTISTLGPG

[5] = target: 5-hydroxytryptamine receptor 2B (Homo sapiens, UniProt P41595); assay type: functional, cell-based
Estrogen receptor = target: T4, Estrogen receptor (Homo sapiens, UniProt P03372)
T4 sequence (P03372 whole entry): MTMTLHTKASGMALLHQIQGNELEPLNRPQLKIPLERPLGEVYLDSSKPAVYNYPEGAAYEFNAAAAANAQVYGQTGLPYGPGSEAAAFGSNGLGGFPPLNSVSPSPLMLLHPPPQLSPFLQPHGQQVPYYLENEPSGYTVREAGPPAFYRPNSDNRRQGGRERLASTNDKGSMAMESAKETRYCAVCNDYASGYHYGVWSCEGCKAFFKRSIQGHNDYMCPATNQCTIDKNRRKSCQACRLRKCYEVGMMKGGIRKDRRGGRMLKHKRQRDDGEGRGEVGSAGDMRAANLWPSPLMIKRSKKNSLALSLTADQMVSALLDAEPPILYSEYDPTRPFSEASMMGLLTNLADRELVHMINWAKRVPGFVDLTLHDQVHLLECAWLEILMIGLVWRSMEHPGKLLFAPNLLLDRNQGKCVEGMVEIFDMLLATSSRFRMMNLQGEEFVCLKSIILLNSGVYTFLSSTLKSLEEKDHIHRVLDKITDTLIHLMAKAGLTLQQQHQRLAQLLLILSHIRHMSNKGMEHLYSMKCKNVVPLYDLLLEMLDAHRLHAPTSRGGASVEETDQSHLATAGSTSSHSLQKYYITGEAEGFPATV
Further: assay procedure not described here.

Chain of 3',5'-cyclic-AMP phosphodiesterase 4A (P27815 whole entry): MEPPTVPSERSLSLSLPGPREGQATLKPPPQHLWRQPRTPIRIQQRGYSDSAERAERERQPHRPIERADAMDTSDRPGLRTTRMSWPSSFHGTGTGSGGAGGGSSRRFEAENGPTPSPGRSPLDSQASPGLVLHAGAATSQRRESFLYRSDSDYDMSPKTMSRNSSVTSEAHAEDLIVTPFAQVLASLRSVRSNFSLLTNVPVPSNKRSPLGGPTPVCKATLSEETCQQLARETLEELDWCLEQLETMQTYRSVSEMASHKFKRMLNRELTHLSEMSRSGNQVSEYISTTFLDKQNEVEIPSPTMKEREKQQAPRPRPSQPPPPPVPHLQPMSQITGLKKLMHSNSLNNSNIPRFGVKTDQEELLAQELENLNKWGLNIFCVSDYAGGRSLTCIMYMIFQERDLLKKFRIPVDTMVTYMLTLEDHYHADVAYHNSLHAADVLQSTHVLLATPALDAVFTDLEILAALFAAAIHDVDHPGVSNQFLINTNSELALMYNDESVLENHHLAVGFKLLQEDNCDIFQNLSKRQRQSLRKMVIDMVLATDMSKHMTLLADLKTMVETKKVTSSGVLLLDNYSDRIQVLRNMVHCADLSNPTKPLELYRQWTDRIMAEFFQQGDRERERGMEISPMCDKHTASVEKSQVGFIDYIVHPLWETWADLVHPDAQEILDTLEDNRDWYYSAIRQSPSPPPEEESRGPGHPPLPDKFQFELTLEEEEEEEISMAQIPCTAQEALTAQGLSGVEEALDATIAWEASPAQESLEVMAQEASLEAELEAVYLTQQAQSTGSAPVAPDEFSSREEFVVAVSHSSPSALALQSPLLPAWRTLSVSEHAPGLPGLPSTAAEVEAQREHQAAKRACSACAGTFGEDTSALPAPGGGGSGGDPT
Chain of Histamine H1 receptor (P35367 whole entry): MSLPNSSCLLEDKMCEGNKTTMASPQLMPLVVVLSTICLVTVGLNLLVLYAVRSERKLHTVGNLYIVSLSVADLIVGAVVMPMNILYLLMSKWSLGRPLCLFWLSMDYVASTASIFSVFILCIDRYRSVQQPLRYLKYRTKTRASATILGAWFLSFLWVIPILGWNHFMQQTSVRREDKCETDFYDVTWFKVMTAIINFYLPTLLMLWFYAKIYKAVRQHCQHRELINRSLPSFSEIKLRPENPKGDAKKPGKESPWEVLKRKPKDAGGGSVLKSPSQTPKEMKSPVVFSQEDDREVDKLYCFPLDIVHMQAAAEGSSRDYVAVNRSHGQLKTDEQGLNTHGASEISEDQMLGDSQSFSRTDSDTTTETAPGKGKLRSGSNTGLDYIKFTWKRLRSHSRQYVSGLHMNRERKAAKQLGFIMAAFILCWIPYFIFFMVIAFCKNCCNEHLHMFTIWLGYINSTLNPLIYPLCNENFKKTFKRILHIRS
Chain of Sodium-dependent noradrenaline transporter (P23975 whole entry): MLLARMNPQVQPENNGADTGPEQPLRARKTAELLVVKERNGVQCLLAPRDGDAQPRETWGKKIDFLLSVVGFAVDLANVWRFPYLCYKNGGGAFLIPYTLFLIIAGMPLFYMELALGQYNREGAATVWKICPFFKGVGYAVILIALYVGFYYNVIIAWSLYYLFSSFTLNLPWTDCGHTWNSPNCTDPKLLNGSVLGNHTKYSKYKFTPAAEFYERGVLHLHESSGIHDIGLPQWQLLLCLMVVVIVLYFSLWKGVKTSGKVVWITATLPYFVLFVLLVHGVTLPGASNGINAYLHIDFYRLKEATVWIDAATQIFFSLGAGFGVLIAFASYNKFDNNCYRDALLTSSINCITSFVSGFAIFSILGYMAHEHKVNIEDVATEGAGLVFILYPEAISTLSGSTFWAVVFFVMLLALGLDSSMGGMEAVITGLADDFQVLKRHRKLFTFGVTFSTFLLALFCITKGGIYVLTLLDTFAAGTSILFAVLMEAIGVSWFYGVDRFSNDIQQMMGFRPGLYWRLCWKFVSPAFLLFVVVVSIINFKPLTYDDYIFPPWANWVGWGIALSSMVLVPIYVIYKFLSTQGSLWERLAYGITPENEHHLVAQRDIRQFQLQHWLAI
Chain of 5-hydroxytryptamine receptor 2B (P41595 whole entry): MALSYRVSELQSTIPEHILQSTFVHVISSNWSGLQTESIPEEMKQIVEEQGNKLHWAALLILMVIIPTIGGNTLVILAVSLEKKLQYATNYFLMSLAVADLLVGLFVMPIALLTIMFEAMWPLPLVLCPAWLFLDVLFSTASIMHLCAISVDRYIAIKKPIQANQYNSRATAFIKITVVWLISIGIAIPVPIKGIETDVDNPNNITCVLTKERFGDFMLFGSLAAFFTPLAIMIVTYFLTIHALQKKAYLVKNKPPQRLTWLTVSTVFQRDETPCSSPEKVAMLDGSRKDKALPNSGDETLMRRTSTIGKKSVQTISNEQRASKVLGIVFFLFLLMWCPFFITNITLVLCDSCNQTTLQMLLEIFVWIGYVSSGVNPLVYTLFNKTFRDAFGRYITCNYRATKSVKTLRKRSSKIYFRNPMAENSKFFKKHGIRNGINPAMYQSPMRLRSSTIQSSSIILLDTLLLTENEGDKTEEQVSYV

| SMILES | AC50 [1] | AC50 [2] | AC50 (Thromboxane A2 receptor) | AC50 (Histamine H1 receptor) | AC50 [3] | AC50 [4] | AC50 [5] | AC50 (Estrogen receptor) |
| --- | --- | --- | --- | --- | --- | --- | --- | --- |
| COC(=O)c1ccc(O)cc1 [METHYLPARABEN] | > 30 µM | > 30 µM | > 30 µM |  |  |  |  |  |
| CC[C@@H]([C@H](C)O)n1ncn(-c2ccc(N3CCN(c4ccc(OC[C@@H]5CO[C@@](Cn6cncn6)(c6ccc(F)cc6F)C5)cc4)CC3)cc2)c1=O [POSACONAZOLE] | > 30 µM | > 30 µM | > 30 µM | > 30 µM |  |  |  |  |
| CCOC(=O)N1CSC[C@H]1C(=O)O [TELMESTEINE] | > 30 µM | > 30 µM | > 30 µM |  |  |  |  |  |
| Cc1ncc(COP(=O)(O)O)c(C=O)c1O [PYRIDOXAL PHOSPHATE ANHYDROUS] | 19.5 µM | > 30 µM | > 30 µM |  |  |  |  |  |
| Cc1c(N(C)CS(=O)(=O)O)c(=O)n(-c2ccccc2)n1C [METAMIZOLE] | > 30 µM | > 30 µM | > 30 µM |  |  |  |  |  |
| CCC(=O)O[C@]1(C(=O)CCl)[C@@H](C)C[C@H]2[C@@H]3C[C@H](F)C4=CC(=O)C=C[C@]4(C)[C@@]3(F)[C@@H](O)C[C@@]21C [HALOBETASOL PROPIONATE] | > 30 µM | > 30 µM | > 30 µM |  |  |  |  |  |
| Cc1cccc(N2CC(CO)OC2=O)c1 (centres undefined) [TOLOXATONE] |  |  |  | > 30 µM | > 30 µM | > 30 µM | > 30 µM |  |
| Cc1cc(C(C)(C)C)cc(C)c1CC1=NCCN1 [XYLOMETAZOLINE] |  |  |  | > 30 µM | 0.0023 µM | > 30 µM |  | > 30 µM |
| C[C@]12CC[C@@H]3c4ccc(O)cc4C[C@@H](CCCCCCCCC[S+]([O-])CCCC(F)(F)C(F)(F)F)[C@H]3[C@@H]1CC[C@@H]2O (some centres undefined) [FULVESTRANT] |  |  |  | > 30 µM | > 30 µM | > 30 µM | > 30 µM |  |
| CC(C)N(CCNC(=O)CN1CCCC1=O)C(C)C | > 30 µM | > 30 µM | > 30 µM |  |  |  |  |  |
| Cc1ccccc1N1CCN(CCc2nnc3n2CCCC3)CC1 [DAPIPRAZOLE] | > 30 µM | > 30 µM | > 30 µM |  |  |  |  |  |
| CN(C)CCOC(c1ccccc1)c1ccc(Br)cc1 (centres undefined) [BROMODIPHENHYDRAMINE] | > 30 µM | 4.22 µM | > 30 µM |  |  |  |  |  |
| CC(C)(C)NC[C@H](O)COc1cccc2c1CCCC2=O [LEVOBUNOLOL] | > 30 µM | > 30 µM | > 30 µM |  |  |  |  |  |
| CC(N)Cc1ccc(O)cc1 (centres undefined) [HYDROXYAMPHETAMINE] | > 30 µM | 9.66 µM | > 30 µM |  |  |  |  |  |
| NCC(CC(=O)O)c1ccccc1 (centres undefined) [PHENIBUT] | > 30 µM | > 30 µM | > 30 µM |  |  |  |  |  |
| CC1=CCC(C(C)(C)O)CC1O (centres undefined) [SOBREROL] | > 30 µM | > 30 µM | > 30 µM |  |  |  |  |  |
| CCCc1nc(C(C)(C)O)c(C(=O)O)n1Cc1ccc(-c2ccccc2-c2nnn[nH]2)cc1 [OLMESARTAN] | > 30 µM | > 30 µM | > 30 µM |  |  |  |  |  |
| CC(=O)O[C@]1(C(C)=O)CC[C@H]2[C@@H]3C=C(Cl)C4=CC(=O)CC[C@]4(C)[C@H]3CC[C@@]21C [CHLORMADINONE ACETATE] | > 30 µM | > 30 µM | > 30 µM |  |  |  |  |  |
| COc1ccc(CN(CCN(C)C)c2ccccn2)cc1 [PYRILAMINE] | > 30 µM | > 30 µM | > 30 µM |  |  |  |  |  |
| CCN(CCCc1ccccc1)CCCc1ccccc1 [ALVERINE] | > 30 µM | 1.15 µM | > 30 µM |  |  |  |  |  |
